Reference: paper PMC3281842, “Crystal Structure of TDRD3 and Methyl-Arginine Binding Characterization of TDRD3, SMN and SPF30” (PLoS ONE, 2012)
Where two headings read alike, the source gives them in different places. Square brackets hold non-standard residues; d marks the D form. Peptide text beside a SMILES is read from it. Arg(Me2a) = CN(C)C(=N)NCCC[C@H](N)C(=O)O; Arg(Me2s) = CN=C(NC)NCCC[C@H](N)C(=O)O; Arg(Me) = CNC(=N)NCCC[C@H](N)C(=O)O

Tests used:
TDRD3 (aa 520–633) [1] = biological target: T1, TDRD3 (aa 520–633) (Homo sapiens, UniProt Q9H7E2); test: ITC (Isothermal Titration Calorimetry) binding, TDRD3; conditions: 20 mM Tris pH 8.0, 200 mM NaCl, 25°C, one-site binding model, NB = no detectable binding
T1 construct: TDRD3 (aa 520–633); His tag (pET28-MHL) (N); made in house; host or cells: Escherichia coli BL21 (DE3)
T1 sequence (Q9H7E2 520-633): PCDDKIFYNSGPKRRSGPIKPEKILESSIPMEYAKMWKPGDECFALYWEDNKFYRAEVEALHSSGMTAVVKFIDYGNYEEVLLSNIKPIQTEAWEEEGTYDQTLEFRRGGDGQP
Method: Figure 2 Preferential binding of TDRD3 to asymmetrical dimethylated H3R17 peptide over symmetrical dimethylated H3R17 peptide. The ITC measurements were done in 20 mM Tris pH 8.0 and 200 mM NaCl using the same TDRD3 construct as used in Table 1. The measurements were taken at 25°C. Binding isotherms were plotted and analyzed using Origin Software (MicroCal Inc.). The ITC measurements were fit to a one-site binding model. (A) Histone H3R17me2a peptide (TGGKAPRme2aKQLATKA). (B) Histone H3R17me2s peptide (TGGKAPRme2sKQLATKA). (C) PIWIL1_R4me2a peptide (TGRme2aARARA). TEXT PRINTED IN THE PICTURE: (A) H3R17me2a: Kd>1000μM | (B) H3R17me2s: No binding | (C) PIWIL1_R4me2a: Kd>500μM
The protocol for ITC (Isothermal Titration Calorimetry) was carried out as described before. The ITC buffer used in this study is 20 mM Tris pH 8.0 and 200 mM NaCl. The measurements were taken at 25°C. Binding isotherms were plotted and analyzed using Origin Software (MicroCal Inc.). The ITC measurements were fit to a one-site binding model.

SND1 (aa 650–910) [2] = biological target: T2, SND1 (aa 650–910) (Homo sapiens, UniProt Q7KZF4); test: Fluorescence polarization binding assay, SND1 extended Tudor domain; conditions: values without asterisk in Table 1, NB = no detectable binding
T2 construct: SND1 (aa 650–910)
T2 sequence (Q7KZF4 650-910): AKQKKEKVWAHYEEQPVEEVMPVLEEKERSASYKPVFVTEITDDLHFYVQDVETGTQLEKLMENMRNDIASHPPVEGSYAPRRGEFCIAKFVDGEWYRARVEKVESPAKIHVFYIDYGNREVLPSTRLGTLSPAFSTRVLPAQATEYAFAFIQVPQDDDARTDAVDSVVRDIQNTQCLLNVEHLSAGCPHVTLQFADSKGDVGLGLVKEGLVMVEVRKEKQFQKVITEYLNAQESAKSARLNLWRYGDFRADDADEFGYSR
Method: (§1) All the regular and fluorescent peptides used this study were synthesized by Tufts University Core Services (Boston, USA). The fluorescence polarization assay was carried out as described before. The buffer used in the fluorescence polarization assay is 20 mM Tris pH 7.5, 50 mM NaCl, 1 mM DTT and 0.01% Triton X-100. An excitation wavelength of 485 nm and an emission wavelength of 528 nm are used. The data are measured at 25°C and corrected for background by subtracting the free-labeled peptide background. The data were collected by the Synergy 2 (BioTec, USA) fluorescence polarization program and were fit to one-site binding model using Origin 7 (MicroCal, Inc.). The Kd values are the average of three independent measurements.

SMN (aa 80–170) = biological target: T3, SMN (aa 80–170) (Homo sapiens, UniProt Q16637); test: Fluorescence polarization binding assay, SMN Tudor domain; conditions: for Kd: fluorescence polarization, fluorescein-labeled peptide, 20 mM Tris pH 7.5, 50 mM NaCl, 1 mM DTT, 0.01% Triton X-100, 25°C, average of three independent measurements, NB = no detectable binding
T3 construct: SMN (aa 80–170); His tag (pET28-MHL) (N); made in house; host or cells: Escherichia coli BL21 (DE3)
T3 sequence (Q16637 80-170): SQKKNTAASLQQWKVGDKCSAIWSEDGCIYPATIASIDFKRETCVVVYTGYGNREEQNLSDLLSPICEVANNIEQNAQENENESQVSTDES
Method: (§2) Figure 1 Fluorescence polarization binding curves of TDRD3 (aa 520–633), SMN (aa 80–170), and SPF30 (aa 65–150) to the PIWIL1-R4 peptides. The buffer used in the fluorescence polarization assay is 20 mM Tris pH 7.5, 50 mM NaCl, 1 mM DTT and 0.01% Triton X-100. The data are measured at 25°C and corrected for background by subtracting the free-labeled peptide background. The Kd values are the average of three independent measurements.
as §1

SPF30 (aa 65–150) = biological target: T4, SPF30 (aa 65–150) (Homo sapiens, UniProt O75940); test: Fluorescence polarization binding assay, SPF30 Tudor domain; conditions: fluorescein-labeled peptide, 20 mM Tris pH 7.5, 50 mM NaCl, 1 mM DTT, 0.01% Triton X-100, 25°C, average of three independent measurements, NB = no detectable binding
T4 construct: SPF30 (aa 65–150); His tag (pET28-MHL) (N); made in house; host or cells: Escherichia coli BL21 (DE3)
T4 sequence (O75940 65-150): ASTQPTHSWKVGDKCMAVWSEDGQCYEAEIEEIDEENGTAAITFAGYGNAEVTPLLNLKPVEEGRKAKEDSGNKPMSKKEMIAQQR
Method: as §2, §1

TDRD3 (aa 520–633) [3] = biological target: T1, TDRD3 (aa 520–633); test: Fluorescence polarization binding assay, TDRD3 Tudor domain; conditions: fluorescein-labeled peptide, 20 mM Tris pH 7.5, 50 mM NaCl, 1 mM DTT, 0.01% Triton X-100, 25°C, average of three independent measurements, NB = no detectable binding
Method: TDRD3 contains a Tudor domain at its C-terminus. […] In order to characterize its binding specificity and affinity quantitatively, we performed a series of fluorescence polarization (FP) binding assays using our fluorescein-labeled peptide library, which includes GAR motif-containing SmD3 and PIWIL1 peptides, PGM motif-containing SmB peptides, and histone H3R2 peptides (Table 1 and Fig. 1). A low salt concentration (50 mM NaCl) is used in the FP binding assay due to the weak binding affinities of these proteins to their ligands. At this salt concentration, the binding affinities are increased about four times compared to the data measured at 200 mM NaCl (Fig. S1), which will save the reagents and make the Kd measurement more reliable. […] Therefore, TDRD3 has a different binding selectivity than SND1, which we have previously established that the extended Tudor domain of SND1 preferentially binds symmetrically dimethylated arginine PIWIL1 peptides. Similar to SND1, the binding selectivity of TDRD3 among these three different arginine methylation marks is about 2 to 4-fold (Table 1).
as §2, §1

SND1 (aa 650–910) [4] = biological target: T2, SND1 (aa 650–910); conditions: values marked * in Table 1; NB = no detectable binding; ref Liu K et al, PNAS, 2010 [20]; cited from earlier work
Source text: Table 1 Binding affinities of TDRD3 (aa 520–633), SMN (aa 80–170), and SPF30 (aa 65–150) to different methyl-arginine peptides in comparison with SND1 (aa 650–910). | column: Kd (µM) / SND1 (aa 650–910)

Row | Compound | Kd (SMN (aa 80–170)) | Kd (SPF30 (aa 65–150)) | Kd (TDRD3 (aa 520–633) [3]) | other results
1 | CC(C)C[C@H](NC(=O)[C@H](CCC(N)=O)NC(=O)[C@H](CCCCN)NC(=O)[C@H](CCCNC(=N)N(C)C)NC(=O)[C@@H]1CCCN1C(=O)[C@H](C)NC(=O)[C@H](CCCCN)NC(=O)CNC(=O)CNC(=O)[C@@H](N)[C@@H](C)O)C(=O)N[C@@H](C)C(=O)N[C@H](C(=O)N[C@@H](CCCCN)C(=O)N[C@@H](C)C(=O)O)[C@@H](C)O [H3R17me2a] | – | – | – | Kd (TDRD3 (aa 520–633) [1]): > 1000 µM
2 | CN=C(NC)NCCC[C@H](NC(=O)[C@@H]1CCCN1C(=O)[C@H](C)NC(=O)[C@H](CCCCN)NC(=O)CNC(=O)CNC(=O)[C@@H](N)[C@@H](C)O)C(=O)N[C@@H](CCCCN)C(=O)N[C@@H](CCC(N)=O)C(=O)N[C@@H](CC(C)C)C(=O)N[C@@H](C)C(=O)N[C@H](C(=O)N[C@@H](CCCCN)C(=O)N[C@@H](C)C(=O)O)[C@@H](C)O [H3R17me2s] | – | – | – | Kd (TDRD3 (aa 520–633) [1]): > 500 µM; Kd TDRD3 (aa 520–633) by ITC (TDRD3 (aa 520–633) [1]): No binding
3 | CN=C(NC)NCCC[C@H](NC(=O)CNC(=O)[C@@H]1CCCN1C(=O)[C@@H]1CCCN1C(=O)[C@@H](N)Cc1ccc(O)cc1)C(=O)NCC(=O)NCC(=O)N1CCC[C@H]1C(=O)N1CCC[C@H]1C(=O)N1CCC[C@H]1C(=O)O [PGM(SmB165SD)] (H-YPPG[Arg(Me2s)]GGPPP-OH; N-terminus and C-terminus assumed) | > 300 µM | > 500 µM | – | Kd (SND1 (aa 650–910) [2]): > 500 µM
4 | CN=C(NC)NCCC[C@H](NC(=O)[C@H](CCSC)NC(=O)CNC(=O)[C@@H]1CCCN1C(=O)[C@@H]1CCCN1)C(=O)N1CCC[C@H]1C(=O)N1CCC[C@H]1C(=O)N1CCC[C@H]1C(=O)N1CCC[C@H]1C(=O)NCC(=O)O [PGM(SmB214SD)] (H-PPGM[Arg(Me2s)]PPPPG-OH; N-terminus and C-terminus assumed) | > 400 µM | > 500 µM | – | Kd (SND1 (aa 650–910) [2]): > 500 µM
5 | CN=C(NC)NCCC[C@H](NC(=O)[C@H](CCSC)NC(=O)CNC(=O)[C@@H]1CCCN1C(=O)[C@@H]1CCCN1)C(=O)NCC(=O)N1CCC[C@H]1C(=O)N1CCC[C@H]1C(=O)N1CCC[C@H]1C(=O)O [PGM(SmB221SD)] (H-PPGM[Arg(Me2s)]GPPP-OH; N-terminus and C-terminus assumed) | > 500 µM | > 500 µM | – | Kd (SND1 (aa 650–910) [2]): > 500 µM
6 | CNC(=N)NCCC[C@H](NC(=O)CNC(=O)[C@@H](N)[C@@H](C)O)C(=O)N[C@@H](C)C(=O)N[C@@H](CCCNC(=N)N)C(=O)N[C@@H](C)C(=O)N[C@@H](CCCNC(=N)N)C(=O)N[C@@H](C)C(=O)N[C@@H](CCCNC(=N)N)C(=O)NCC(=O)N[C@@H](CCCNC(=N)N)C(=O)N[C@@H](C)C(=O)N[C@@H](CCCNC(=N)N)C(=O)NCC(=O)N[C@@H](CCC(N)=O)C(=O)N[C@@H](CCC(=O)O)C(=O)O [PIWIL1-R4me1] (H-TG[Arg(Me)]ARARARGRARGQE-OH; N-terminus and C-terminus assumed) | > 150 µM | > 500 µM | > 500 µM | binding affinity to SMN, times weaker than for PIWIL1_R4me2s (SMN (aa 80–170); ratio of FP Kd values relative to PIWIL1_R4me2s (Kd 34 µM)): over 4 times
7 | C[C@H](NC(=O)[C@H](CCCNC(=N)N)NC(=O)[C@H](C)NC(=O)[C@H](CCCNC(=N)N)NC(=O)[C@H](C)NC(=O)[C@H](CCCNC(=N)N(C)C)NC(=O)CNC(=O)[C@@H](N)[C@@H](C)O)C(=O)O [PIWIL1_R4me2a peptide (TGRme2aARARA)] (H-TG[Arg(Me2a)]ARARA-OH; N-terminus and C-terminus assumed) | – | – | – | Kd (TDRD3 (aa 520–633) [1]): > 500 µM
8 | ARTK (me)1/2/3 QTARKST [Histone H3K4me1/2/3, histone H3 peptides mono-, di- or trimethylated at K4, reported in one line] | > 500 µM | > 500 µM | – | Kd (SND1 (aa 650–910) [4]): > 500 µM
9 | ARTKQTARK(me)1/2/3STGGKA [Histone H3K9me1/2/3, histone H3 peptides mono-, di- or trimethylated at K9, reported in one line] | > 500 µM | > 500 µM | – | Kd (SND1 (aa 650–910) [4]): > 500 µM

The next lines start with results.

Row | Kd (SMN (aa 80–170)) | Kd (SPF30 (aa 65–150)) | Kd (TDRD3 (aa 520–633) [3]) | Compound | other results
10 | – | > 400 µM | > 150 µM | C[C@H](NC(=O)[C@H](CCCNC(=N)N)NC(=O)CNC(=O)[C@H](CCCNC(=N)N)NC(=O)[C@H](C)NC(=O)[C@H](CCCNC(=N)N)NC(=O)[C@H](C)NC(=O)[C@H](CCCNC(=N)N)NC(=O)[C@H](C)NC(=O)[C@H](CCCNC(=N)N(C)C)NC(=O)CNC(=O)[C@@H](N)[C@@H](C)O)C(=O)N[C@@H](CCCNC(=N)N)C(=O)NCC(=O)N[C@@H](CCC(N)=O)C(=O)N[C@@H](CCC(=O)O)C(=O)O [PIWIL1-R4me2a] (H-TG[Arg(Me2a)]ARARARGRARGQE-OH) | –
11 | – | > 200 µM | > 300 µM | CN=C(NC)NCCC[C@H](NC(=O)CNC(=O)[C@@H](N)[C@@H](C)O)C(=O)N[C@@H](C)C(=O)N[C@@H](CCCNC(=N)N)C(=O)N[C@@H](C)C(=O)N[C@@H](CCCNC(=N)N)C(=O)N[C@@H](C)C(=O)N[C@@H](CCCNC(=N)N)C(=O)NCC(=O)N[C@@H](CCCNC(=N)N)C(=O)N[C@@H](C)C(=O)N[C@@H](CCCNC(=N)N)C(=O)NCC(=O)N[C@@H](CCC(N)=O)C(=O)N[C@@H](CCC(=O)O)C(=O)O [PIWIL1-R4me2s] (H-TG[Arg(Me2s)]ARARARGRARGQE-OH) | –
12 | – | > 500 µM | > 400 µM | CN=C(NC)NCCC[C@H](NC(=O)CNC(=O)[C@H](CCCNC(=N)N)NC(=O)CNC(=O)CN)C(=O)NCC(=O)N[C@@H](CCCNC(=N)N)C(=O)NCC(=O)O [SmD3RSDMA] (H-GGRG[Arg(Me2s)]GRG-OH) | –
